# Test system: OBX mice
# Test: Tail-suspension test and forced swim test in OBX mice (depression model)
# Type: in vivo
# Details: single oral dose 1 mg/kg, analyzed after 1 hour
# Experimental: OBX mice were used as a depression model to determine the effect of TP-014 (chronic oral treatment for 2 weeks (1 mg/kg)) to ameliorate a depression-like symptom. OBX mice are reported to show a decline in cognitive function, but have originally been established as a depression model. Depression analysis was done by tail-suspension test and forced swim test. In the tail-suspension test, mice are hung upside-down by their tail. If the hung mice are affected by depression, they show a longer immobility time. The immobility time of normal mice is shorter since they move actively when hung. In the forced swim test, mice are forced to swim in a beaker filled with water. Depression mice neither swim nor move (just float). The time (immobility time(s)) for which mice stay still in such a way is measured.
# The same model mice were orally treated with a single dose of each of the test compounds (1 mg/kg), and analyzed after 1 hour by tail-suspension test and forced swim test. The results are shown in FIGS. 22-1 (tail-suspension test) and 22-2 (forced swim test).
compound,measurement,value
"CC(C)(C)C(=O)N[C@@H](c1ccccc1)[C@H]1[C@H]2C[C@@H]3C[C@](Cl)(C2)C[C@@]1(O)C3 [TP-083, N—((R)-((1S,2R,3S,5S,7S)-5-chloro-1-hydroxyadamantan-2-yl)(phenyl)methyl)pivalamide]",ameliorating effect on a depression-like symptom (tail-suspension test and forced swim test) compared with TP-014,higher ameliorating effect on a depression-like symptom than TP-014

# — patent US11608313B2, “Adamantylmethylamine derivative and use thereof as pharmaceutical” (TOHOKU UNIVERSITY, priority 2017, dated 2023)
